According to the OPERA property sets (Mansouri et al. 2018):

Conditions: for log10 BCF / log10 biotransformation half-life (days): fish

| Structure (SMILES) | melting point [°C] | boiling point [°C] | other results |
| --- | --- | --- | --- |
| CCCCCCC(O)C(=O)O (stereo not drawn) | 70 | – | – |
| C#CCCC(C)=O | – | 149 | – |
| CCN1C(=O)C=CC1=O | 45.5 | – | – |
| O=COC1CCCCC1 | – | 163 | – |
| CC(C)(C)OCC1CO1 (stereo not drawn) | -70 | 152 | – |
| CCC(C)OC(C)=O (stereo not drawn) | -98.9 | 112 | log10 vapour pressure (mmHg): 1.23; ready biodegradability: readily biodegradable |
| CCC(C)(O)CC | -23.6 | 122 | log10 vapour pressure (mmHg): 0.745 |
| COc1ccc2[nH]cc(CCN)c2c1 | 122 | – | – |
| COc1ccc(C(=O)c2csc(S(N)(=O)=O)c2)cc1 | 174 | – | – |
| CC(C)(C)C(=O)C(C)(C)C | -25.2 | 152 | – |
| CCc1ssc(=O)c1-c1ccccc1 | 82 | – | – |
| Clc1cc(Cl)c2c(oc3c(Cl)cccc32)c1Cl | 177 | – | – |
| CC1CCCCC1 | -127 | 101 | log10 Henry constant (atm·m³/mol): -0.367; log10 Koa: 3.03; log10 biodegradation half-life (days): 0.602; log10 vapour pressure (mmHg): 1.66; log10 BCF: 2.27; log10 biotransformation half-life (days): 0.57 |
| CCCC(C)CC(C)(C)C (stereo not drawn) | – | 148 | – |
| CC(=O)NS(=O)(=O)c1ccc(NC(=O)c2ccccc2C(=O)O)cc1 | 196 | – | – |
| CCCCCCCCC1CCCCC1 | -20 | 264 | log10 vapour pressure (mmHg): -2.04; log10 biotransformation half-life (days): 1.1 |
| CCC(C)CC(CC)CC (stereo not drawn) | – | 158 | – |
| IC(I)=C(I)I | 187 | – | – |
| O=C(Cl)C=Cc1ccccc1 | 36 | 257 | – |
| OCC1CCC(CO)CC1 (stereo not drawn) | 51 | 285 | log10 vapour pressure (mmHg): -3.51 |
| CC=NNc1ccc([N+](=O)[O-])cc1[N+](=O)[O-] | 166 | – | – |
| CCC(C)(C)C(=O)O | -14 | 186 | log10 vapour pressure (mmHg): -0.83 |
| Cc1ccc2c(c1N)C(=O)c1ccccc1C2=O | 206 | – | log10 Koc (L/kg): 3.9 |
| CC(C)(CC(=O)O)c1ccccc1 | 60 | – | – |
| Cc1cccc2c1CCC2 | – | 205 | log10 biodegradation half-life (days): 0.301 |

| Structure (SMILES) | melting point [°C] | boiling point [°C] | other results |
| --- | --- | --- | --- |
| C=C[Si]1(C)O[Si](C)(C=C)O[Si](C)(C=C)O[Si](C)(C=C)O1 (stereo not drawn) | -43.5 | 224 | – |
| CCC(CO)(CO)COCC(CC)(CO)CO | 110 | – | ready biodegradability: not readily biodegradable |
| COc1ccc(OC)c(Cl)c1 | – | – | ready biodegradability: not readily biodegradable |
| CCCC(C)(CO)CO | 62.5 | 234 | – |
| O=[N+]([O-])c1ccc(O[C@@H]2O[C@H](CO)[C@H](O)[C@H](O)[C@H]2O)cc1 | 189 | – | – |
| Clc1cccc(Oc2ccc(Cl)cc2Cl)c1 | – | – | log10 vapour pressure (mmHg): -3.74 |
| CC=CC(OCC)OCC | – | 148 | – |
| Clc1ccc(Cl)c(-c2c(Cl)ccc(Cl)c2Cl)c1 | – | – | log10 Henry constant (atm·m³/mol): -3.92; log10 Koa: 8.79; log10 Koc (L/kg): 5.55 |
| OCCBr | – | 150 | – |
| Cc1ccc(CCl)cc1 | – | 201 | log10 vapour pressure (mmHg): -0.527 |
| Cc1cccc(Oc2ccccc2)c1 | – | 272 | ready biodegradability: not readily biodegradable |
| ClCCOCCCl | -51.9 | 178 | log10 Koc (L/kg): 1.88; log10 vapour pressure (mmHg): 0.19; ready biodegradability: not readily biodegradable; log10 BCF: 1; log10 biotransformation half-life (days): -0.81 |
| CCCCCCCCCCCCCC(O)CC (stereo not drawn) | 50 | – | – |
| CCN(CCO)CCCC(C)Nc1ccnc2cc(Cl)ccc12 (stereo not drawn) | 90 | – | – |
| CC1CCC1 | -162 | 36.3 | log10 vapour pressure (mmHg): 3.17 |
| CC1=CC(=O)C(C(C)C)CC1 (stereo not drawn) | – | 233 | – |
| CCC(C)(CC)C(=O)O | – | 207 | – |
| c1ccc(-c2ncoc2-c2ccccc2)cc1 | 44 | – | – |
| COc1cc(Cl)cc(Cl)c1 | 41 | – | – |
| CC(C)(C)c1cc(C(=O)O)cc(C(C)(C)C)c1O | 208 | – | – |
| CCCCCCN(CCCCCC)C(=O)COC(=O)c1ccccc1 | 162 | – | – |
| CCC(=O)N(CC)CC | – | 191 | – |
| COc1ccc(NC(C)=O)cc1N | – | – | ready biodegradability: not readily biodegradable |
| CCCCCCCCCCCCc1ccccc1O | – | – | ready biodegradability: not readily biodegradable |
| COc1nc(Cl)c(Cl)cc1Cl | – | – | log10 Koc (L/kg): 2.96 |

| Structure (SMILES) | melting point [°C] | boiling point [°C] | other results |
| --- | --- | --- | --- |
| N#CC(=O)c1ccccc1 | 32.5 | 206 | – |
| O=C(O)C(Cc1ccccc1)C(=O)O | 121 | – | – |
| CC1(C)C2C=C[C@]1(C)CC2 | 113 | 146 | – |
| FC(Cl)(Cl)c1ccccc1 | -26.8 | 179 | – |
| CC(C)C(C)(C)O | -14 | 118 | log10 vapour pressure (mmHg): 0.505 |
| CNc1cnn(-c2cccc(C(F)(F)F)c2)c(=O)c1Cl | 184 | – | log10 Koc (L/kg): 3.28; log10 vapour pressure (mmHg): -7.54 |
| CCCCCC[C@@H](O)C/C=C\CCCCCCCC(=O)O | 5.5 | – | – |
| CCCCCCCCCCCCCCCCOCCCCCCCCCCCCCCCC | 55 | – | ready biodegradability: not readily biodegradable |
| Clc1ccc(-c2cc(Cl)ccc2Cl)cc1 | – | – | log10 Henry constant (atm·m³/mol): -3.72; log10 Koa: 7.92; log10 vapour pressure (mmHg): -3.4; log10 BCF: 4.13; log10 biotransformation half-life (days): 1.91 |
| Ic1ccc(I)c(I)c1I | 136 | – | – |
| C=C(C)c1cc(=O)c(O)ccc1CC=C(C)C | 71.5 | – | – |
| CCCOC(=O)CCC | -95.2 | 143 | log10 vapour pressure (mmHg): 0.775 |
| COc1ccc(C(=CC(=O)N2CCOCC2)c2ccc(Cl)cc2)cc1OC | 148 | – | log10 vapour pressure (mmHg): -8.13 |
| OCCN1CCCCC1 | 17.9 | 202 | – |
| COc1cccc(C)c1 | -47 | 176 | – |
| CCC(Oc1ccccc1)C(=O)O (stereo not drawn) | 98 | 258 | – |
| ClC(Br)C(Cl)Br (stereo not drawn) | -26 | 195 | – |
| Clc1cc(Cl)c(-c2ccccc2)c(Cl)c1 | – | – | log10 vapour pressure (mmHg): -3.15 |
| Nc1ccc(C(=O)N[C@@H](CCC(=O)O)C(=O)O)cc1 | 173 | – | – |
| O=C=Nc1ccccc1 | – | 163 | log10 vapour pressure (mmHg): 0.41 |
| CCCN=C=S | – | 153 | – |
| CCCCCCCCCCCCN(C)C | 22 | 260 | ready biodegradability: readily biodegradable |
| CC1(C)O[C@H]2CC(=O)OC[C@]23[C@H]2CC[C@@]4(C)[C@H](c5ccoc5)OC(=O)[C@H]5O[C@]54[C@]2(C)C(=O)C[C@@H]13 | 298 | – | – |
| CCc1cccc(CC)c1N(COC)C(=O)CCl | 40 | – | log10 Henry constant (atm·m³/mol): -8.08; log10 Koc (L/kg): 2.28; ready biodegradability: not readily biodegradable; log10 BCF: 1.12; log10 biotransformation half-life (days): -1.1 |
| CCCCCCCCCCCCN | 28.3 | 259 | log10 vapour pressure (mmHg): -2.09 |

| Structure (SMILES) | melting point [°C] | boiling point [°C] | other results |
| --- | --- | --- | --- |
| FC(F)(F)C(F)(C(F)(F)F)C(F)(F)F | – | 0 | – |
| C[C@H](NC(=O)[C@H](C)NC(=O)[C@@H](N)CCP(C)(=O)O)C(=O)[O-].[Na+] | 160 | – | – |
| NS(=O)(=O)c1ccc(SCCCCO)cc1 | 101 | – | – |
| O=Nc1ccccc1 | 68.5 | – | – |
| COC1=CC=C2[C@H]3Cc4ccc(OC)c5c4[C@@]2(CCN3C)[C@H]1O5 | 193 | – | – |
| C=C(C)[C@]1(O)C2OC(=O)C1[C@]1(O)[C@H]3O[C@H]3[C@]3(CO3)[C@]1(C)C2O (stereo partly drawn) | 225 | – | – |
| O=C(O)c1cc2ccccc2o1 | 192 | 312 | – |
| On1nnc2ccccc21 | 158 | – | – |
| C=C(c1ccccc1)c1ccccc1 | 8.2 | 277 | log10 vapour pressure (mmHg): -1.88 |
| O=[N+]([O-])c1cc(Cl)cc(Cl)c1 | 65.4 | – | log10 BCF: 2.23; log10 biotransformation half-life (days): 0.57 |
| CCCCCS(=O)CCCCC | 58 | – | – |
| CC(C(=O)O)c1ccc(N2Cc3ccccc3C2=O)cc1 (stereo not drawn) | 214 | – | – |
| O=C1CCCCCCCCCC1 | – | – | log10 vapour pressure (mmHg): -1.31 |
| c1ccc(-c2ccc3ccccc3n2)cc1 | 86 | 363 | – |
| OCCCCCCCCCCCCO | 81.3 | – | – |
| O=[N+]([O-])c1ccc(Sc2ccc([N+](=O)[O-])cc2)cc1 | 160 | – | – |
| CC(C)CC(C)CC(O)CC(C)C (stereo not drawn) | – | 225 | – |
| O=C(O)CCCCCCCBr | 38.5 | – | – |
| COP(=O)(O)OC | – | 174 | – |
| CCOC(OCC)(OCC)OCC | – | 160 | – |
| CC=CC=CC(=O)OCC | – | 196 | – |
| CN1C(=O)C(O)N=C(c2ccccc2Cl)c2cc(Cl)ccc21 (stereo not drawn) | 206 | – | – |
| CCCCc1ccccc1O | -20 | 235 | log10 vapour pressure (mmHg): -1.99 |
| ClC(Cl)(Cl)Br | -5.7 | 105 | log10 vapour pressure (mmHg): 1.59 |
| CCCCCCCCCC[C@H](O)CC | 32 | – | – |

| Structure (SMILES) | melting point [°C] | boiling point [°C] | other results |
| --- | --- | --- | --- |
| CCCCCCCCCCCCI | 0.3 | 298 | log10 vapour pressure (mmHg): -1.85 |
| C/C(=N\O)C(=O)c1ccccc1 | 114 | – | – |
| Oc1ccc(S)cc1 | 29.5 | – | – |
| NC(=O)c1ccc([N+](=O)[O-])cc1 | 200 | – | log10 Koc (L/kg): 1.93 |
| CCCCCCCCCCCCCCCCCCCCCC | 44.4 | 369 | log10 biodegradation half-life (days): 2.1; log10 vapour pressure (mmHg): -5.89; ready biodegradability: readily biodegradable |
| Cc1cccc(CBr)c1 | – | 212 | – |
| N#CCCc1ccccc1 | -1 | 261 | – |
| O=C1c2ccccc2C(=O)C1c1nc2ccccc2c(Br)c1O | – | – | ready biodegradability: not readily biodegradable; log10 BCF: 1.14 |
| CCOC(=O)c1cccc([N+](=O)[O-])c1 | 47 | 297 | – |
| COP1(=S)OCc2ccccc2O1 (stereo not drawn) | – | – | ready biodegradability: not readily biodegradable; log10 BCF: 1.31; log10 biotransformation half-life (days): -1.15 |
| Oc1ccc(Nc2ccc3ccccc3c2)cc1 | 140 | – | – |
| CP(C)(=O)O | 92 | – | – |
| CCCCOC(=O)CCC(C)=O | – | 238 | – |
| C=C(C=O)CC | – | 92.5 | – |
| C[C@H](CCC(=O)O)[C@H]1CC[C@H]2[C@@H]3[C@H](O)C[C@@H]4C[C@H](O)CC[C@]4(C)[C@H]3C[C@H](O)[C@]12C | 198 | – | – |
| Cc1cc[nH]c(=O)c1 | 130 | 308 | – |
| C=CCCCCCCCCCCC=C | – | – | log10 biodegradation half-life (days): 1.11 |
| CCCCCCCCCCCCCCCCCCCC(=O)OCC | 50 | – | log10 vapour pressure (mmHg): -7.72 |
| CN(CCCN)CCCN | – | 232 | – |
| CN(C)C(CSS(=O)(=O)c1ccccc1)CSS(=O)(=O)c1ccccc1 | 83.5 | – | – |
| [O-][n+]1ccccc1 | 65.5 | – | – |
| CC(C)CCO[N+](=O)[O-] | – | 146 | log10 Henry constant (atm·m³/mol): -2.59; log10 vapour pressure (mmHg): 0.71 |
| CCc1nn(C)c(C(=O)NCc2ccc(C(C)(C)C)cc2)c1Cl | 61.5 | – | log10 BCF: 1.15 |
